Measured values taken from patent US6087334A, “Anti-diabetic peptides” (Amylin Pharmaceuticals, Inc., priority 1998, dated 2000).
Where a SMILES comes first, the peptide text is derived from it. Bridges are numbered along the chain shown (N, C = ends).

What was measured:
[1] = tested on: gastric emptying in conscious rats; settings: rat, in vivo
Text: Peptide compounds of the present invention may be evaluated for amylin agonist activity using the methods of measuring the rate of gastric emptying disclosed in, for example, Young et al., Diabetologia, 38(6):642-648 (1995). In a phenol red method, which is described in Example D below, conscious rats receive by gavage an a caloric gel containing methyl cellulose and a phenol red indicator. Twenty minutes after gavage, animals are anesthetized using halothane, the stomach exposed and clamped at the pyloric and lower esophageal sphincters, removed and opened into an alkaline solution. Stomach content may be derived from the intensity of the phenol red in the alkaline solution, measured by absorbance at a wavelength of 560 nm. In a tritiated glucose method, conscious rats are gavaged with tritiated glucose in water. The rats are gently restrained by the tail, the tip of which is anesthetized using lidocaine. Tritium in the plasma separated from tail blood is collected at various timepoints and detected in a beta counter. Test compounds are normally administered about one minute before gavage.
Phenol Red Gastric Emptying Assay:
Gastric emptying was measured using a modification (Plourde et al., Life Sci. 53:857-862 (1993)) of the original method of Scarpignato et al. (Arch. Int. Pharmacodyn. Ther. 246:286-295 (1980)). Conscious rats received by gavage. 1.5 mL of an a caloric gel containing 1.5% methyl cellulose (M-0262, Sigma Chemical Co., St. Louis, Mo.) and 0.05% phenol red indicator. Twenty minutes after gavage, rats were anesthetized using 5% halothane, the stomach exposed and clamped at the pyloric and lower esophageal sphincters using artery forceps, removed and opened into an alkaline solution which was made up to a fixed volume. Stomach content was derived from the intensity of the phenol red in the alkaline solution, measured by absorbance at a wavelength of 560 nm. […] In other experiments, particulate gastric contents were centrifuged to clear the solution for absorbance measurements. Where the diluted gastric contents remained turbid, the spectroscopic absorbance due to phenol red was derived as the difference between that present in alkaline versus acidified dilutent.
In separate experiments on 7 rats, the stomach and small intestine were both excised and opened into an alkaline solution. […] Percent gastric emptying contents remaining=(absorbance at 20 min)/(absorbance at 0 min). For those compounds for which ED50 data is presented, dose response curves for gastric emptying were fitted to a 4-parameter logistic model using a least-squares iterative routine (ALLFIT, v2.7, NIH, Bethesda, Md.) to derive ED50 s. Because ED50 is log-normally distributed, it is expressed ± standard error of the logarithm. Pairwise comparisons were performed using one-way analysis of variance and the Student-Newman-Keuls multiple comparisons test (Instat v2.0, GraphPad Software, San Diego, Calif.) using P<0.05 as the level of significance.
As a reference point for dose response studies, rat amylin (Bachem, Torrance, Calif.) dissolved in 0.15M saline, was administered as a 0.1 mL subcutaneous bolus in doses of 0, 0.01, 0.1, 1, 10 or 100 μg 5 minutes before gavage in Harlan Sprague Dawley (non-diabetic) rats fasted 20 hours and diabetic BB rats fasted 6 hours.

[2] = biological target: T1, C1a receptor (C1a-type calcitonin receptor) (Rattus norvegicus, UniProt P32214); assay: C1a/293 competitive binding, displacement of [125I]-human calcitonin (Example C); settings: HEK293 plasma membranes (C1a/293), [125I]-human calcitonin 20 pM
T1 construct: expressed in transfected cells
T1 sequence (P32214 25-479 isoform P32214-2 limits assumed): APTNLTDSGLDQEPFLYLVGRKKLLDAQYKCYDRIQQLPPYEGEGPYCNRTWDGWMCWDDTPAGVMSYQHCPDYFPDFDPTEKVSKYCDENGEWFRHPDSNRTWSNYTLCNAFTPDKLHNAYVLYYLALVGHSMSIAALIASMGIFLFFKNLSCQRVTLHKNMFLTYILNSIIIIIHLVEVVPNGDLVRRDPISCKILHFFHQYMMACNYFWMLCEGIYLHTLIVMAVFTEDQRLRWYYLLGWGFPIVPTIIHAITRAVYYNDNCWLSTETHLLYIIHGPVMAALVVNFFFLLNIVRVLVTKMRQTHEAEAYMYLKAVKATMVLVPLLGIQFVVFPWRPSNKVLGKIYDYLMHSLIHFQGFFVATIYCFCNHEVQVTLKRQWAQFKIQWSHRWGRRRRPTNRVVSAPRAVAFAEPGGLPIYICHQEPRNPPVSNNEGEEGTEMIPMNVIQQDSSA
Experimental: Peptide compounds of the present invention may be evaluated for binding to the C1a receptor using the procedures described in Example C. The C1a receptor is the predominant mammalian calcitonin receptor subtype. C1a pcDNA construction and transfection were carried out as previously described (Albrandt et al. 1993, FEBS Letters, 325:225-232). HEK293 cell lines showing stable expression of the rat C1a-type calcitonin receptor (C1a/293) or the human C1a-type calcitonin receptor (1154/293) were selected by G418 resistance and limiting dilution culture methods. Plasma membranes were collected from homogenized HEK293 cells and used in the receptor binding assay. Individual test peptides at concentrations spanning 6 log units starting at around 10^-6 M were examined for their ability to displace [^125 I]-human calcitonin from the plasma membrane preparation using a 96-well microtiter plate format and scintillation counting with a Wallac LKB Beta plate counter. Competitive binding curves were constructed. Non-specific binding was measured in the presence of 100 nM calcitonin. Peptide potencies (IC50 's for competitive binding) were calculated by non-linear regression using Prism™ (version 2.01, GraphPAD Software, San Diego, Calif.).
C1a/293 Competitive Binding Studies:
Compounds were evaluated for competition in binding to the C1a receptor as follows:
Reference peptides used in these studies were purchased from Bachem (Torrance, Calif.). All other chemicals were of the highest commercial grade. [^35 S]-GTPγS was purchased from NEN Life Science Products, Inc., Pittsburgh, Pa. [^125 I]-human calcitonin was purchased from Amersham Pharmacia Biotech, Inc., Piscataway, N.J.
Methods for C1a pcDNA construction and transfection have been previously described (Albrandt, et al. 1993). HEK293 cell lines stably expressing the rat C1a-type calcitonin receptor (C1a/293) or the human C1a-type calcitonin receptor (1154/293) were selected by G418 resistance and limiting dilution culture methods.
Confluent cells were detached from tissue culture flasks by incubation with 5 mM EDTA in PBS. Cells were homogenized in ice-cold 20 mM HEPES, pH 7.4 with a Polytron homogenizer. Plasma membranes were collected using three cycles of washing in fresh buffer followed by centrifugation for 15 minutes at 48,000×g. The final membrane pellet was resuspended in 20 mM HEPES buffer containing 0.2 mM phenylmethylsulfonyl fluoride (PMSF) and stored at -70° C.
Assay buffer contained 5 μg/mL bestatin, 1 μg/mL phosphoramidon, 1 mg/mL bovine serum albumin (fraction V), 1 mg/mL bacitracin, 1 mM MgCl2, and 20 mM HEPES, pH 7.4. Membranes (2-5 μg membrane protein/well), [^125 I]-human calcitonin (20 pM), and peptides were combined in 200 μL buffer in 96-well microtiter plates. After a 60 minute incubation at room temperature, well contents were harvested onto polyethyleneimine-treated GF/B glass fiber pads using a Tomtec Mach II plate harvestor (Hamden, Conn.). Dried pads were combined with scintillant and counted on a Wallac LKB Beta Plate scintillation counter (Gaithersburg, Md.). For competitive binding curves, samples were run in duplicate over a 6 log concentration range starting at 10^-6 or 10^-7 M. Non-specific binding was measured in the presence of 100 nM human calcitonin.

| Compound | Example D ED50 [1] [µg] | IC50 [2] [nM] |
| --- | --- | --- |
| CC(C)C[C@H](NC(=O)[C@H](CCCNC(=N)N)NC(=O)[C@H](C)NC(=O)[C@@H](NC(=O)[C@H](C)NC(=O)[C@@H]1CSSC[C@H](NC(=O)[C@@H](N)CCCCN)C(=O)N[C@@H](CC(N)=O)C(=O)N[C@@H]([C@@H](C)O)C(=O)N[C@@H](C)C(=O)N[C@@H]([C@@H](C)O)C(=O)N1)[C@@H](C)O)C(=O)N[C@@H](C)C(=O)N[C@@H](C)C(=O)N[C@@H](Cc1ccccc1)C(=O)N[C@@H](CC(C)C)C(=O)N[C@@H](C)C(=O)N[C@@H](CCCNC(=N)N)C(=O)N[C@@H](CO)C(=O)N[C@@H](CO)C(=O)NCC(=O)N[C@@H](Cc1ccc(O)cc1)C(N)=O [Example 1] (H-KCNTATCATARLAAFLARSSGY-NH2; disulfide 2-7) | 0.26 | 0.093 |
| CC(C)C[C@H](NC(=O)[C@H](CCCNC(=N)N)NC(=O)[C@H](C)NC(=O)[C@@H](NC(=O)[C@H](C)NC(=O)[C@@H]1CSSC[C@H](N)C(=O)N[C@@H](CC(N)=O)C(=O)N[C@@H]([C@@H](C)O)C(=O)N[C@@H](C)C(=O)N[C@@H]([C@@H](C)O)C(=O)N1)[C@@H](C)O)C(=O)N[C@@H](C)C(=O)N[C@@H](C)C(=O)N[C@@H](Cc1ccccc1)C(=O)N[C@@H](CC(C)C)C(=O)N[C@@H](C)C(=O)N[C@@H](CCCNC(=N)N)C(=O)N[C@@H](CO)C(N)=O [Example 3] (H-CNTATCATARLAAFLARS-NH2; disulfide 1-6) | 0.45 | 0.19 |
| CC(C)C[C@H](NC(=O)[C@H](CCCNC(=N)N)NC(=O)[C@H](C)NC(=O)[C@@H](NC(=O)[C@H](C)NC(=O)[C@@H]1CSSC[C@H](NC(=O)[C@@H](N)CCCCN)C(=O)N[C@@H](CC(N)=O)C(=O)N[C@@H]([C@@H](C)O)C(=O)N[C@@H](C)C(=O)N[C@@H]([C@@H](C)O)C(=O)N1)[C@@H](C)O)C(=O)N[C@@H](C)C(=O)N[C@@H](CC(N)=O)C(=O)N[C@@H](Cc1ccccc1)C(=O)N[C@@H](CC(C)C)C(=O)N[C@H](C(=O)N[C@@H](CCCNC(=N)N)C(=O)N[C@@H](CO)C(=O)N[C@@H](CO)C(=O)NCC(=O)N[C@@H](Cc1ccc(O)cc1)C(N)=O)C(C)C [Example 5] (H-KCNTATCATARLANFLVRSSGY-NH2; disulfide 2-7) | 9.3 | 1.4 |
| CC(C)C[C@H](NC(=O)[C@H](CCCNC(=N)N)NC(=O)[C@H](C)NC(=O)[C@@H](NC(=O)[C@H](C)NC(=O)[C@H](C)NC(=O)[C@@H](NC(=O)[C@H](CO)NC(=O)[C@@H](N)CC(C)C)[C@@H](C)O)[C@@H](C)O)C(=O)N[C@@H](C)C(=O)N[C@@H](C)C(=O)N[C@@H](Cc1ccccc1)C(=O)N[C@@H](CC(C)C)C(=O)N[C@@H](C)C(=O)N[C@@H](CCCNC(=N)N)C(=O)N[C@@H](CO)C(N)=O [Example 6] (H-LSTAATARLAAFLARS-NH2) | 1.34 | 1.4 |
